The subject of data set [1] is DPP-IV. The arrangement: method as in PMID 26323964. Conditions: cited from earlier work.
For data set [2], the system named is ACE. Conditions: cited from earlier work.
In data set [3] the target is angiotensin-converting enzyme (ACE) (Homo sapiens, UniProt P12821). Briefly: In vitro antihypertensive assay (ACE inhibition, FAPGG, spectrophotometric). In kind it is biochemical. Here is the method:
A spectrophotometrical method was used to determine the antihypertensive activity of peptides according to the procedure of Asoodeh, et al.[18], with some modifications. ACE (22 µL at 50 mU mL^−1) was mixed with 50 µL of the peptides at increasing concentrations (0.1, 0.2, 0.4, 0.8, 1, and 2 mg mL^−1). FAPGG (100 µL at 0.5 mM) and 150 µL of ACE buffer (50 mM Tris-HCl [pH 7.5] containing 0.3 M NaCl and 1 mM ZnCl2) were added to the mixture, followed by monitoring at 340 nm for 60 min. The antihypertensive activity was calculated as follows:2 Antihypertensiveactivity%=1-ΔAbssample/ΔAbscontrol×100
The ACE buffer was added to the mixture instead of the peptides for control. For determination of the experiment precision, captopril (15 nM) was used as positive control. The half maximal inhibitory concentration (IC50) was defined as the concentration of the peptides at which 50% of ACE activity was inhibited. All experiments were performed in triplicate.

Data set [4] has as its target dipeptidyl peptidase IV (DPP-IV) (Homo sapiens, UniProt P27487). Briefly: In vitro antidiabetic assay (DPP-IV inhibition). It counts as biochemical. On the procedure: To assess antidiabetic activity, a pre-incubated solution (50 μL) containing 30 μL Tris-HCl buffer, 5 μL of peptides (0.1, 0.2, 0.4, 0.8, 1, 2, and 4 mg mL^−1) or standard (5 μM), and 15 μL […] were poured into the wells of a 96-well microplate. Afterward, 50 μL DPP-IV (0.02 U mL^−1) was added to the mixture and incubated at 37 °C for 30 min. The reaction was stopped by adding 100 μL sodium acetate (1 M, pH 4). Absorbance at 405 nm was measured in a microplate reader. Diprotein-A (isoleucine-proline-isoleucine) was used as a standard DPP-IV inhibitor. The antidiabetic activity was calculated as follows:3 DPP - IVinhibitoryactivity(%)=1-Asample-Ablanck/Apositicecontrol-Anegativecontrol×100
Tris-HCl (100 mM) was added to the mixture instead of DPP-IV, peptide, or peptide plus DPP-IV to represent a blank, positive, and negative control, respectively.

Data set [5] deals with E. coli (ATCC 8739). It counts as cell-based, Escherichia coli. Conditions: ATCC 8739, 24 h. On the procedure:
(§1) The hydrolysates were investigated for their antibacterial activity against E. coli (ATCC 8739), P. aeruginosa (ATCC 9027), S. aureus (ATCC 6538), and K. pneumoniae (ATCC 43816) using the […]. Briefly, 50 μL of different concentrations of peptides were prepared in sterile Mueller Hinton broth. A volume of 30 μL of resazurin indicator solution (0.02%) was added to each well. An equal volume of bacterial suspension (0.5 McFarland standard) and sterile Mueller Hinton broth was then added to the well and incubated at 37 °C for 24 h. Sterile Mueller Hinton broth and 20 μg mL^−1 gentamycin were used as blank and positive controls, respectively. Afterward, the minimum inhibitory concentration (MIC) was determined as the lowest concentration of the peptides at which no visible growth was observed, compared to the positive control. All dilutions were performed in duplicate.

Data set [6] concerns P. aeruginosa (ATCC 9027). In kind it is cell-based, Pseudomonas aeruginosa. The settings on record: ATCC 9027, 24 h. Here is the method: as §1
In data set [7] the test system is S. aureus (ATCC 6538). In kind it is cell-based, Staphylococcus aureus. The settings on record: ATCC 6538, 24 h. On the procedure: as §1
Data set [8] deals with K. pneumoniae (ATCC 43816). It counts as cell-based, Klebsiella pneumoniae. Conditions: ATCC 43816, 24 h. On the procedure:
as §1

A short description of data set [9]: in vitro. It counts as cell-based. Conditions: human, Caco-2 cells. Here is the method: The synthesized peptides were investigated for ACE and DPP-IV inhibitory activity, and antibacterial potential against E. coli, P. aeruginosa, S. aureus, and K. pneumoniae. Their cytotoxicity was also analyzed using the method described by Benjakul et al.[20], with some modifications. Briefly, Caco-2 and L929 cell lines were cultured in Dulbecco's Modified Eagle Medium and the RAW264.7 cell line in RPMI 1640 medium and incubated at 5% CO2 and 37 °C. All media were supplemented with 10% fetal bovine serum. Each cell line (100 µL at 2 × 10^4 cells mL^−1) was seeded onto 96-well microplates and mixed with an equal volume of each peptide at 1, 2, 4, and 6 mg mL^−1. Subsequently, the microplate was incubated for 72 h, followed by a cell viability assay using the MTT I proliferation kit (Roche Diagnostics, Basel, Switzerland). The absorbance was recorded at 570 nm.

Ends that are not written are not given here.

Usually IC50 stands for the point on the concentration scale where inhibition reaches its midpoint. A high value points to a need for much substance. By viability is commonly meant a per cent measure of how many cells are alive, often set against a control. Read a low viability as a greater loss of cells.

angiotensin-converting enzyme (ACE), sequence (P12821 30-1306, species assumed): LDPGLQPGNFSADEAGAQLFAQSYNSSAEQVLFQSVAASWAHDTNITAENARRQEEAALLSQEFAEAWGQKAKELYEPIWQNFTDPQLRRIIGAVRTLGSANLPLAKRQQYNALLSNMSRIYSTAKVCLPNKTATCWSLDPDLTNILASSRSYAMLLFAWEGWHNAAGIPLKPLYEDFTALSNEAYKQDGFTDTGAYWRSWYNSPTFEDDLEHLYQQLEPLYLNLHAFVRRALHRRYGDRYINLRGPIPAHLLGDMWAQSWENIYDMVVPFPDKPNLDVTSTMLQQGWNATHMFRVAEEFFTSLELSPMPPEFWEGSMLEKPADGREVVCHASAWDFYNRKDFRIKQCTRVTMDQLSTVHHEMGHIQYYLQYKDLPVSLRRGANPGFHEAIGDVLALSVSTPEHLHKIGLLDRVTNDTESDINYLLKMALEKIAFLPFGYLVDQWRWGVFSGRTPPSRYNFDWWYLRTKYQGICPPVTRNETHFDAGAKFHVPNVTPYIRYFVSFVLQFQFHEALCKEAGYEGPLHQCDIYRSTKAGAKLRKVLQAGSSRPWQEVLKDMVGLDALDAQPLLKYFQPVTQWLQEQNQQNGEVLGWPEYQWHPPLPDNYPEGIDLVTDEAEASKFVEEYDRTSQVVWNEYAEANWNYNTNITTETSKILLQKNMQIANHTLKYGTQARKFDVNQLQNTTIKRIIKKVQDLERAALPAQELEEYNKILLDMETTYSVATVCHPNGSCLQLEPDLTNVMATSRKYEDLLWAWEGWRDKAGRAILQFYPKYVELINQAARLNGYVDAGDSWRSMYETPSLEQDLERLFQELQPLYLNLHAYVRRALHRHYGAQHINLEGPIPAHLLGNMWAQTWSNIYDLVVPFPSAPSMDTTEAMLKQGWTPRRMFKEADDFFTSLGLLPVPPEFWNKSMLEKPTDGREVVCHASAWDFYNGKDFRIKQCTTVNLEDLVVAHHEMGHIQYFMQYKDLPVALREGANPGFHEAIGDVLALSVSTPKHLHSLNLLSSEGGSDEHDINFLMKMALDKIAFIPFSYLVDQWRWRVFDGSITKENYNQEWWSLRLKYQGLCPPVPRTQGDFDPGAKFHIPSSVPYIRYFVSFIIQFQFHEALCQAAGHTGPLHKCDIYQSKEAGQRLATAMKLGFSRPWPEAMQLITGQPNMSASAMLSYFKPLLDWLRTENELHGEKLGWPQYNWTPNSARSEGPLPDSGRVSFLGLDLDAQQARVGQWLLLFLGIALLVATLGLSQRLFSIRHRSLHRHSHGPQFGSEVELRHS
dipeptidyl peptidase IV (DPP-IV), sequence (P27487 whole entry, species assumed): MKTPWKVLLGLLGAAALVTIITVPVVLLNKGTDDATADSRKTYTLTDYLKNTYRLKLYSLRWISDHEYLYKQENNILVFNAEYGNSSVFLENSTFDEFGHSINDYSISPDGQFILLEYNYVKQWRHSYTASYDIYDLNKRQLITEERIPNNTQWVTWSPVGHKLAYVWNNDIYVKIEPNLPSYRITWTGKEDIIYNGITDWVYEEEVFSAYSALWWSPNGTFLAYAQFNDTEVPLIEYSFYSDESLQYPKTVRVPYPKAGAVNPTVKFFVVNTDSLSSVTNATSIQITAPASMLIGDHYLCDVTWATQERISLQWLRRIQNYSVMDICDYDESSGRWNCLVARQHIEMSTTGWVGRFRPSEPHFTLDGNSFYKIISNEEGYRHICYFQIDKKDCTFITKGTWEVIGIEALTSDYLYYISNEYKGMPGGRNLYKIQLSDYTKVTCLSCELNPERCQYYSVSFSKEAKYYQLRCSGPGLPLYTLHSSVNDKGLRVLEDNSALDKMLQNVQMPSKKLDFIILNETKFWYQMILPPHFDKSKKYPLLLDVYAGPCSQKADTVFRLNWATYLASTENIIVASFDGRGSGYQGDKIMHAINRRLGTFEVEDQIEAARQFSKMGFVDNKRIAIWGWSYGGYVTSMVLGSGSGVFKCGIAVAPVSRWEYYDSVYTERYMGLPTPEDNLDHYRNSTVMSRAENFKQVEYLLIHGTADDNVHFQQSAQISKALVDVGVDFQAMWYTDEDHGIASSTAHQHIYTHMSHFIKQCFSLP

Regarding MHQPPQPL, in data set [1], the DPP-IV inhibitory activities entry is “moderate”.
In the case of VLAQYK, in data set [2], the ACE inhibition is given as 30.1%.
With GRDGEP-NH2 [P2, GRDGEP], the IC50 in data set [3] was 811 µM; in [4] it was 1480 µM. The “MIC for E. coli” value in data set [5] came to 1330 µg/mL. Further, the “MIC against P. aeruginosa” value in [6] is no less than 2000 µg/mL. In data set [7], the “MIC against S. aureus” value was 1160 µg/mL. For the same substance, the “MIC against K. pneumoniae” value in [8] is no less than 2000 µg/mL. The substance further came in with a viability at 72 h, 6 mg mL^−1 in [9] of 95.8%.
On to MTGTQGEAGR-NH2 [P3, MTGTQGEAGR], for which the IC50 came out at 775 µM in [3] and 1150 µM in data set [4]. For the same substance, the “MIC for E. coli” value in [5] was found to be 460 µg/mL. Also, in data set [6], the “MIC against P. aeruginosa” value amounted to 1660 µg/mL. The “MIC against S. aureus” value in data set [7] is 200 µg/mL. In addition, the “MIC against K. pneumoniae” value in data set [8] turned out to be 1500 µg/mL. The same substance registered a viability at 72 h, 6 mg mL^−1 in data set [9] of 95.9%.
On to SPTVMFPPQSVL, for which the DPP-IV inhibitory activities result in data set [1] is “moderate”.

Source of the values: paper PMC8016831, “Structure–function engineering of novel fish gelatin-derived multifunctional peptides using high-resolution peptidomics and bioinformatics” (Scientific Reports, 2021).
